Assay results taken from patent publication US9725483B2, “Compounds for the treatment and/or care of the skin and/or mucous membranes and their use in cosmetic or pharmaceutical compositions” (LUBRIZOL ADVANCED MATERIALS, INC., priority 2012, dated 2017).
Blank lines part the entries; values can stand above or below the molecule they belong to. Residues, ends and D or L forms follow the SMILES beside them.

What was measured:
[1] = test system: collagenase; test: Anti-collagenase activity, fluorescein-derivatized gelatin; type: biochemical; details: collagenase 0.4 U/mL, 2 hours
Protocol: Different concentrations of the peptide Ac-L-Ala-L-Thr-L-Asn-L-Thr-OH (Ac-(SEQ ID NO: 16)-OH) were incubated in a 96-well plate together with fluorescein-derivatized gelatin, a fluorescent marker. Next, collagenase (0.4 U/mL) was added and incubated at room temperature protected from sunlight for 2 hours, after which the fluorescence (λexc=495 nm and λem=515 nm) was measured at different points, thus the breakage in the derivatized gelatin could be quantified. As a positive control 1,10-phenanthroline was used, a metal chelator which acts as an inhibitor of metalloproteases.

[2] = test system: tyrosinase; test: Anti-tyrosinase activity, L-DOPA substrate; type: biochemical
Protocol: Different concentrations of the peptide […]-OH (Ac-(SEQ ID NO: 16)-OH) were incubated in a 96-well plate together with L-DOPA in a HEPES buffer for 30 minutes at 37° C. After incubation, the tyrosinase enzyme was added and incubated for 10 minutes. The reaction was stopped freezing the plate at -20° C. for 5 minutes, after which the absorbency was measured at λexc=490 nm in a microplate reader. As a positive control kojic acid was added, a substance with known anti-tyrosinase activity.

[3] = test system: IL-6 release induced by LL-37 in primary human keratinocytes; test: Inhibition of the release of IL-6 induced by LL-37 in primary human keratinocytes (ELISA); type: cell-based; details: carrier = 100%
Protocol: (§1) Solutions of the compounds of the invention were prepared in Eppendorf tubes at the desired concentrations in complete Epilife® medium with and without LL-37 at 50 μg/mL in a final volume of 250 μL. The mixtures were incubated in rotation for 1 hour at room temperature. After the preincubation hour the samples were collected and they were given a quick pulse in the centrifuge to push all the solution to the bottom of the tube. Without removing the incubation medium, it was added to the 50 μL/well cells of the previous mixtures in quadruplicate and the plate was incubated at 37° C. in a CO2 incubator for 1 hour. After the hour of incubation, 50 μL/well of complete Epilife® medium were added. They were incubated for another 5 hours to allow the release of pro-inflammatory cytokines induced by LL-37 for their subsequent quantification by ELISA. After the 5 hours, the […] of supernatants were collected with the multi-channel pipette and passed to a new 96-well plate and the quantity of IL-6 and IL-8 released was determined by the Human IL-6 ELISA Ready-SET-GO!® and Human IL-8 ELISA Ready-SET-GO!® commercial kits (eBioscience, Inc.) following the supplier's instructions. The absorbency of each well was determined by reading a Multiskan Ascent Reader spectrophotometer at 450 nm correcting for each determination with its corresponding reading at 570 nm. The standardized relative levels of IL-6 and IL-8 were calculated with regard to the absorbency corresponding to the treatment of the cells with carrier. Next, the total number of cells per well was quantified with Cristal Violeta, in order to be able to calculate the percentage of interleukins released per cell.
(§2) In table 4 the results obtained from the release of IL-8 are detailed.

[4] = test system: IL-8 release induced by LL-37 in primary human keratinocytes; test: Inhibition of the release of IL-8 induced by LL-37 in primary human keratinocytes (ELISA); type: cell-based; details: carrier = 100%
Protocol: as §1, §2

[5] = test system: human epidermal melanocytes; test: Inhibition of melanogenesis in human epidermal melanocytes; type: cell-based; details: repeated treatment to day 10, control (culture medium) = 100
Protocol: Primary human melanocytes were cultivated in medium 254 supplemented by HMGS and antibiotics. The cells were grown for 72 hours after which the medium was changed to 254 supplemented by HMGS-2 and antibiotics. The cells were grown until confluence for 2 weeks, changing the medium every 2-3 days. After two weeks, the cells were trypsinized and seeded in 6-well plates. After being incubated for a whole night at 37° C. and 5% of CO2, the first treatment with the peptide was carried out at different concentrations. As a negative control, only medium was added. The treatment was repeated on days 3, 6, 8 and 10, after which the cells were trypsinized and the number counted with a cell counter. Melanin was quantified by measuring the absorbency at 450 nm with a microplate reader and the value was standardized with regard to the total number of cells per well, expressed as picograms of melanin per cell from a calibration line prepared with synthetic melanin dissolved in 1 N NaOH with 10% DMSO.

[6] = target: tyrosinase; test: cell-based or functional assay
[7] = target: collagenase; test: cell-based or functional assay
[8] = target: LL-37, cathelicidin C-terminal antimicrobial peptide (UniProt P49913); test: cell-based or functional assay
[9] = peptide 0.025 mg/mL + LL-37 0.05 mg/ml
[10] = peptide 0.1 mg/mL + LL-37 0.05 mg/ml
[11] = peptide 0.5 mg/mL + LL-37 0.05 mg/ml

% collagenase inhibition ([1]; 40 μg/mL): 95.19%
Molecule: c1cnc2c(c1)ccc1cccnc12 [1,10-phenanthroline, reference compound]

% tyrosinase inhibition ([2]; 2 mg/mL): 38.23% | % tyrosinase inhibition ([2]; 3 mg/mL): 76.01% | % tyrosinase inhibition ([2]; 4 mg/mL): 86.45% | % collagenase inhibition ([1]; 2 mg/mL): 29.21% | % collagenase inhibition ([1]; 10 mg/mL): 100%
Molecule: CC(=O)N[C@@H](C)C(=O)N[C@H](C(=O)N[C@@H](CC(N)=O)C(=O)N[C@H](C(=O)O)[C@@H](C)O)[C@@H](C)O [Ac-L-Ala-L-Thr-L-Asn-L-Thr-OH] (Ac-ATNT-OH)
% IL-6 [3, 9]: 107.25% | % IL-6 [3, 10]: 94.65% | % IL-6 [3, 11]: 92.90% | % IL-8 [4, 9]: 132.70% | % IL-8 [4, 10]: 124.76% | % IL-8 [4, 11]: 109.39% | % melanin (pg/cel) ([5]; 0.25 mg/mL): 45.7 ± 3.2% | % melanin (pg/cel) ([5]; 0.625 mg/mL): 55.8 ± 2.8%

% tyrosinase inhibition ([2]; 140 μg/mL): 85.79%
Molecule: O=c1cc(CO)occ1O [kojic acid, reference compound]

Molecule: Ac-L-Ala-L-Thr-L-Asn-L-Thr-OH (Ac-(SEQ ID NO: 16)-OH) (peptide)
% tyrosinase inhibition (L-DOPA oxidation, absorbance 490 nm), peptide 2 mg/mL [6]: 38.2% | % tyrosinase inhibition (L-DOPA oxidation, absorbance 490 nm), peptide 3 mg/mL [6]: 76% | % tyrosinase inhibition (L-DOPA oxidation, absorbance 490 nm), peptide 4 mg/mL [6]: 86.5% | % collagenase inhibition (cleavage of fluorescein-derivatized gelatin, collagenase 0.4 U/mL), peptide 2 mg/mL [7]: 29.2% | % collagenase inhibition (cleavage of fluorescein-derivatized gelatin, collagenase 0.4 U/mL), peptide 10 mg/mL [7]: 100% | % IL-6 released by primary human keratinocytes (ELISA), peptide 0.025 mg/mL; carrier 100%, LL-37 0.05 mg/ml alone 122.28% [8]: 107% | % IL-6 released by primary human keratinocytes (ELISA), peptide 0.1 mg/mL + LL-37 0.05 mg/ml; carrier 100%, LL-37 alone 122.28% [8]: 94.7% | % IL-6 released by primary human keratinocytes (ELISA), peptide 0.5 mg/mL + LL-37 0.05 mg/ml; carrier 100%, LL-37 alone 122.28% [8]: 92.9% | % IL-8 released by primary human keratinocytes (ELISA), peptide 0.025 mg/mL + LL-37 0.05 mg/ml; carrier 100%, LL-37 alone 142.65% [8]: 133% | % IL-8 released by primary human keratinocytes (ELISA), peptide 0.1 mg/mL + LL-37 0.05 mg/ml; carrier 100%, LL-37 alone 142.65% [8]: 125% | % IL-8 released by primary human keratinocytes (ELISA), peptide 0.5 mg/mL + LL-37 0.05 mg/ml; carrier 100%, LL-37 alone 142.65% [8]: 109%

% IL-6 released by primary human keratinocytes (ELISA), peptide 0.025 mg/mL + LL-37 0.05 mg/ml; carrier 100%, LL-37 alone 122.28% [8]: 108% | % IL-6 released by primary human keratinocytes (ELISA), peptide 0.1 mg/mL + LL-37 0.05 mg/ml; carrier 100%, LL-37 alone 122.28% [8]: 96% | % IL-6 released by primary human keratinocytes (ELISA), peptide 0.5 mg/mL + LL-37 0.05 mg/ml; carrier 100%, LL-37 alone 122.28% [8]: 93.2% | % IL-8 released by primary human keratinocytes (ELISA), peptide 0.025 mg/mL + LL-37 0.05 mg/ml; carrier 100%, LL-37 alone 142.65% [8]: 133% | % IL-8 released by primary human keratinocytes (ELISA), peptide 0.1 mg/mL + LL-37 0.05 mg/ml; carrier 100%, LL-37 alone 142.65% [8]: 125% | % IL-8 released by primary human keratinocytes (ELISA), peptide 0.5 mg/mL + LL-37 0.05 mg/ml; carrier 100%, LL-37 alone 142.65% [8]: 109%
Molecule: Ac-L-Ser-L-Val-L-Arg-L-Val-L-Ala-L-Val-NH2 (Ac-(SEQ ID NO: 2)-NH2) (peptide)

Molecule: Ac-L-Ser-L-Val-L-Arg-L-Val-L-Ala-L-Val-NH2 (Ac-SVRVAV-NH2)
% IL-6 [3, 9]: 108.35% | % IL-6 [3, 10]: 95.96% | % IL-6 [3, 11]: 93.15% | % IL-8 [4, 9]: 132.92% | % IL-8 [4, 10]: 125.05% | % IL-8 [4, 11]: 109.24%

Molecule: LL-37: cathelicidin C-terminal antimicrobial peptide, used to induce release of IL-6 and IL-8 (LLGDFFRKSKEKIGKEFKRIVQRIKDFLRNLVPRTES; Antibacterial peptide LL-37; UniProt P49913 134-170, looked up) [reference compound]
% IL-6 ([3]; LL-37 0.05 mg/ml alone (positive control)): 122.28% | % IL-8 ([4]; LL37 0.05 mg/ml alone (positive control)): 142.65%
